Source: patent publication US9145411B2, “Substituted amino-pyrimidine derivatives” (Asana Biosciences, LLC, priority 2012, dated 2015)

Legend:
PI3Kα (wild-type) = target: T1, PI3Kα (wild-type) (Homo sapiens, UniProt P42336); test: PI3 Kinase TR-FRET assay, PI3Kα (wild-type); format: biochemical; conditions: wild-type P110/P85α, 10 μM ATP
T1 construct: made in house; host or cells: SF9 insect cells
Method in brief: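 Sf9-expressed, Ni-purified p110/p85α (5 ng) with PIP2 was preincubated with compound for 60 min at room temperature in buffer with 40 mM MgCl2 and 5 mM DTT. The reaction ran 30 min at room temperature with 10 μM PIP2 and 10 μM ATP. The TR-FRET 665/615 nm ratio was used to derive IC50 from dose-response curves.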

mTOR kinase = target: T2, mTOR kinase (Homo sapiens, UniProt P42345); test: mTOR kinase TR-FRET assay; format: biochemical; conditions: 20 μM ATP
T2 construct: purchased Millipore, USA
T2 sequence (P42345 1362-2549 limits assumed): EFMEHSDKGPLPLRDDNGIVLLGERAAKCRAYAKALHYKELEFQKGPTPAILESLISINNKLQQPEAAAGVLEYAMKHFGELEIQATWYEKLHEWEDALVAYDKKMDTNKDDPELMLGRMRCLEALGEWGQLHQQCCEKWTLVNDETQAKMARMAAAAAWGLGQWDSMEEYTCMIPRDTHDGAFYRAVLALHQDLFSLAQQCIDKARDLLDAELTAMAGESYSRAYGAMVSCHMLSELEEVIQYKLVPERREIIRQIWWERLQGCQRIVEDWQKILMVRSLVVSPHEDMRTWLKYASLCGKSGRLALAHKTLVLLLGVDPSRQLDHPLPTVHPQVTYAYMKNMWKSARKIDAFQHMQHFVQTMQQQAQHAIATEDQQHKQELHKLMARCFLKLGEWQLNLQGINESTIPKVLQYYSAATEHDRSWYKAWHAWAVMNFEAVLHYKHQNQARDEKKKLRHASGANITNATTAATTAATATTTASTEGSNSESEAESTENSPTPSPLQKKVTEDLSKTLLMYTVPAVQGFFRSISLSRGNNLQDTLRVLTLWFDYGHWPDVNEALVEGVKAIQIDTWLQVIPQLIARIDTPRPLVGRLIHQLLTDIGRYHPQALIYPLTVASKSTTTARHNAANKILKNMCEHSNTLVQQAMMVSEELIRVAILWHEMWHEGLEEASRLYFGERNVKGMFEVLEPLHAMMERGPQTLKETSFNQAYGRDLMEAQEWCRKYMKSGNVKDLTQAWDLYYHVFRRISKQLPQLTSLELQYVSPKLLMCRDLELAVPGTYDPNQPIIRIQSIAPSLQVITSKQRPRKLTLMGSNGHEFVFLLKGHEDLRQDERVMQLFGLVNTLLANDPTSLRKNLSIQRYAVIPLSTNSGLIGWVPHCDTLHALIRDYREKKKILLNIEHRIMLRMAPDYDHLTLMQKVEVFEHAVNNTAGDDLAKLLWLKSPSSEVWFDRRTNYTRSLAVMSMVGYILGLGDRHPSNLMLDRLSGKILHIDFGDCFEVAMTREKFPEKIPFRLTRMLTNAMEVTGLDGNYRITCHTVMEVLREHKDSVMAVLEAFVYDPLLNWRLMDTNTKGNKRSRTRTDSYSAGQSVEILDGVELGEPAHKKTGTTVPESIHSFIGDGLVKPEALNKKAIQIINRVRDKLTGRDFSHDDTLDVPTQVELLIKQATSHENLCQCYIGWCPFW
Method in brief: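 Test compounds were pre-incubated 60 min with mTOR (5 ng), then ULight-p70 S6K (Thr389) peptide (50 nM) and ATP (20 μM) were added in HEPES 50 mM pH 7.5, EGTA, MnCl2 3 mM. After 60 min at room temperature, EDTA stop and Eu-anti-phospho antibody TR-FRET (665/615 nm) gave IC50 from sigmoidal variable-slope fits.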

pAkt(S473) = test: In-cell Western assay, pAkt(S473), PC3 cells; format: cell-based; conditions: Homo sapiens, PC-3, 2 hours incubation
Protocol: (§1) Cells from human prostate cancer cell line PC3 (American Type Culture Collection (ATCC), Manassas, Va. 20108 USA) were seeded at an optimal density of 22,000 cell/well in 96-well plates containing Ham's F12K medium (90 μL) and incubated overnight. The compound dilutions were carried out in 100% DMSO followed by a dilution in the medium. Test compounds were added in serial dilutions to the wells and incubated for 2 hours. The cells were washed and fixed with 4% paraformaldehyde. After incubation at room temperature for 1 hour in the dark, blocking was done for 2 hours at room temperature. Primary antibodies for pAkt(S473) ([…] phosphorylated at serine 473), pAkt(T308) (Akt phosphorylated at threonine 308) and for pS6RP (S235/236) (phosphorylated at serine 235/236) (commercially available from Cell Signaling Technology®, whose protocol was followed for the in-cell western assay, were diluted to the required concentration and added to the corresponding wells followed by overnight incubation at 4° C. Eu-labeled rabbit (PE) (Perkin-Elmer USA catalog #AD0106) secondary antibody was added and incubated for 2 hours at room temperature. Delfia® enhancement solution (cat #1244-105, Perkin Elmer USA) was subsequently added to the plate before taking the reading at 615 nm with excitation wavelength of 340 nm, after which 0.5 μg/mL of Hoechst® 33258 dye (Catalog #86140-5, Sigma) was added to the plate and fluorescence emission was read at 460 nm with 355 nm excitation, to evaluate the correction factor. IC50 values were calculated using a sigmoidal dose-response curve fit in GraphPad Prism® v5 software.

pS6RP (S235/236) = test: In-cell Western assay, pS6RP (S235/236), PC3 cells; format: cell-based; conditions: Homo sapiens, PC-3, 2 hours incubation
Protocol: as §1

PC3 cells = test: XTT assay for cell viability, PC3 cells; format: cell-based; conditions: Homo sapiens, PC-3; PC3 cell proliferation, 96 hours
Method in brief: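 Log-phase PC3 cells (1000/well) were seeded for 24 h, then exposed to serially diluted compounds (DMSO dilutions) for 96 h. Viability was measured by XTT dye conversion at 37 °C, with absorbance read at 465 nm. EC50 was obtained from a sigmoidal dose-response fit.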

pAkt(T308) = test: In-cell Western assay, pAkt(T308), PC3 cells; format: cell-based; conditions: Homo sapiens, PC-3, 2 hours incubation
Method in brief: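 PC3 cells, 22,000/well in Ham's F12K, exposed to serial compound dilutions for 2 h, then fixed and immunostained for each phospho-epitope. Eu-labelled secondary read by time-resolved fluorescence (ex 340, em 615 nm), corrected by Hoechst 33258 signal (ex 355, em 460 nm). IC50 from sigmoidal dose-response fit.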

T1 sequence (P42336 whole entry, species assumed): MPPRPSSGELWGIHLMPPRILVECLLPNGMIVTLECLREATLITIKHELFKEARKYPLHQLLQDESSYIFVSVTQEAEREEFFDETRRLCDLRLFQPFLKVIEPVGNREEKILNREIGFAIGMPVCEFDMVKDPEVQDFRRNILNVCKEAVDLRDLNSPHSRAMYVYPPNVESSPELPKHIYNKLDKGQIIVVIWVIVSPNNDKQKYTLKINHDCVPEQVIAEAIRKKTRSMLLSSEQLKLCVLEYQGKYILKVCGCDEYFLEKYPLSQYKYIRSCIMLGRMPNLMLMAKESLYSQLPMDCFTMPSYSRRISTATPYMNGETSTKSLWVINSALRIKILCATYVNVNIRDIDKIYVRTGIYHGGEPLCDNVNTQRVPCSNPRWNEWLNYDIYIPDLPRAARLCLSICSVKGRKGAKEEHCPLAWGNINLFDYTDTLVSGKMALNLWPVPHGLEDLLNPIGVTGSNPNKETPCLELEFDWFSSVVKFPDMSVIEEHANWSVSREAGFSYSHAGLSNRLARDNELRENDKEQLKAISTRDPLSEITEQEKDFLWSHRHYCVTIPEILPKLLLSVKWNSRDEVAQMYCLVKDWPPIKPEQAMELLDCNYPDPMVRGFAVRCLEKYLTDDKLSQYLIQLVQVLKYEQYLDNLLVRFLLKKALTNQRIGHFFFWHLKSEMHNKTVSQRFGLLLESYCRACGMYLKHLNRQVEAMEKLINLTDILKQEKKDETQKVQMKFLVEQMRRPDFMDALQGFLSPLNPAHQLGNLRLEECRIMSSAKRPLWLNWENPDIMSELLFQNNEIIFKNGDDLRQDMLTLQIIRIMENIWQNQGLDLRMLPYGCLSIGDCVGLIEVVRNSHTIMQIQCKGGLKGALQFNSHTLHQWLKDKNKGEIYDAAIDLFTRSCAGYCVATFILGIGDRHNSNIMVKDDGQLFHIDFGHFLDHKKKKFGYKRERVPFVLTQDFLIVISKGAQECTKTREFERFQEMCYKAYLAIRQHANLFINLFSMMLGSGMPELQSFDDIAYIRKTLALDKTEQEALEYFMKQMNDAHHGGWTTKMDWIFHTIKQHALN
T1 sequence (P27986 whole entry partner, species assumed): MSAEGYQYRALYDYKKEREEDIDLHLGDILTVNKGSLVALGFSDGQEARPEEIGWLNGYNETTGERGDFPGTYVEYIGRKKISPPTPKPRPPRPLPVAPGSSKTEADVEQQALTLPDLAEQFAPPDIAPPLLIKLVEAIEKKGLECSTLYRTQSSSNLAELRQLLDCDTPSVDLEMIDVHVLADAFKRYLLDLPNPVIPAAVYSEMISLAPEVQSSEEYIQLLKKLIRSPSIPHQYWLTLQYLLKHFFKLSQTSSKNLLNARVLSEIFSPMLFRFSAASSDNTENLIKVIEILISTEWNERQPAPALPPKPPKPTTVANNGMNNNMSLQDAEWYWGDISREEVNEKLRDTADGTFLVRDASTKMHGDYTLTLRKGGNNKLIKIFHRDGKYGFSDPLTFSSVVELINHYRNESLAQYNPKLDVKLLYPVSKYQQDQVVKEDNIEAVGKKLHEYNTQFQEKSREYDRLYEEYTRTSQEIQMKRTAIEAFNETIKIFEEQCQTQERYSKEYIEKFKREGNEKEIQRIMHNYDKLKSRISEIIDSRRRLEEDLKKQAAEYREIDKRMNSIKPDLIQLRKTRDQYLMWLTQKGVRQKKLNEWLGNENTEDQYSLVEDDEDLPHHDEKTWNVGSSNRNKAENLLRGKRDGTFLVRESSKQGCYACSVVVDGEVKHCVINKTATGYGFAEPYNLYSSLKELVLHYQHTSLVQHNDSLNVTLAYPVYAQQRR

Structure (SMILES) | IC50 (PI3Kα (wild-type)) [µM] | IC50 (mTOR kinase) [µM] | IC50 (pAkt(S473)) [µM] | IC50 (pS6RP (S235/236)) [µM] | IC50 (PC3 cells) [µM] | IC50 (pAkt(T308)) [µM]
Nc1ncc(-c2nc(N3CCOCC3)c3ncc(-c4cccc(NC(=O)C5CC5)c4)cc3n2)cn1 [Example 7, N-(3-(2-(2-Aminopyrimidin-5-yl)-4-morpholinopyrido[3,2-d]pyrimidin-7-yl)-phenyl)cyclopropanecarboxamide] | < 0.05 | < 0.05 | < 0.1 | 0.1 to 0.5 | 0.1 to 0.5 | 0.1 to 0.5
N#CC1(C(=O)Nc2cccc(-c3cnc4c(N5CCOCC5)nc(-c5cnc(N)nc5)nc4c3)c2)CC1 [Example 61, N-(3-(2-(2-amino-pyrimidin-5-yl)-4-morpholinopyrido[3,2-d]pyrimidin-7-yl)phenyl)-1-cyanocyclopropane-carboxamide] | < 0.05 | < 0.05 | 0.1 to 0.5 | < 0.1 | 0.1 to 0.5 | < 0.1
CC(=O)Nc1cccc(-c2cnc3c(N4CCOCC4)nc(-c4cnc(N)nc4)nc3c2)c1 [Example 3, N-(3-(2-(2-Aminopyrimidin-5-yl)-4-morpholinopyrido[3,2-d]pyrimidin-7-yl)-phenyl)acetamide] | < 0.05 | < 0.05 | 0.1 to 0.5 | 0.1 to 0.5 | 0.1 to 0.5 | 0.1 to 0.5
